Source: patent US8017579B2, “Treatment of viral infections” (priority 2003, dated 2011)
“And” between values parts separate entries of the source, which are not always exact repeats. Equal entries are not always repeated. Where two headings read alike, the source gives them in different places. Ends that are not written are not given here.

Assays:
HSV1 [1] = format: cell-based, herpes simplex virus type 1; conditions: for antiviral activity against HSV1 (in words): HSV1 plaque assay, Vero cells
Method: African Green Monkey Kidney (Vero) cells were maintained in Eagle's minimum essential medium with Earle's salt (EMEM) and supplemented with 10% foetal calf serum (heat-inactivated), 4 mM L-glutamine, and 1% (v/v) nonessential amino acids, plus penicillin and streptomycin (100 IU/ml and 100 μg/ml, respectively) (maintenance medium referred to as 10% EMEM). The cells were incubated at 37° C. in a humidified atmosphere of air with 5% CO2.
On harvesting, monolayers were washed in phosphate-buffered saline (PBS), and dislodged by incubating with trypsin in PBS for 30 min, before inactivating trypsin by addition of an equal volume of 10% EMEM and centrifuging at 500 g (5 min, 4° C.). Cell pellets were resuspended in 10% EMEM, prior to cell counting and seeding of 24-well plates. For antiviral assays, medium containing only 0.5% FCS was used (referred to as 0.5% EMEM).
Three separate passages of HSV1 virus were prepared by infecting Vero cells, and preparing semi-pure suspensions of virus from tissue culture supernatant and cell lysates, before freezing aliquots of virus at −85° C. Viral infectivity was assessed by carrying out plaque assays on serial dilutions of thawed aliquots (expressed in pfu/ml).
Peptides were obtained in lyophilised form from a commercial supplier (AltaBioscience, University of Birmingham or Advanced Biomedical), and were produced at 5 micromole scale. N-terminals were protected by addition of an acetyl group, and the C-terminals were protected by addition of an amide group.
Small quantities of peptide were weighed in sterile Eppendorf tubes, before addition of sufficient 0.5% EMEM to produce a 1.5 mM stock solution, which was frozen at −20° C. in aliquots.
(§1) Vero cells were seeded at 125,000 cells per well in 10% EMEM, and were incubated overnight resulting in confluent monolayers. Peptides were diluted in 0.5% EMEM to give 2× final desired concentration, and 100 μl aliquots were arranged on 96-well plates in arrangement to be used for 24-well plate; control wells containing normal 0.5% EMEM were also prepared. Virus stocks (p3) were thawed, and diluted in 0.5% EMEM such that there were around 100 pfu in 100 μl. Each 24-well plate was inoculated separately. Firstly 100 μl of virus stock was added to the peptide or control medium arranged on a 96-well plate. This was incubated at 37° C. for ten minutes before inoculation. Medium was removed from four wells of a 24-well plate containing confluent Vero, and the 200 μl inoculum added to the appropriate well. Once all wells were treated, the 24-well plate was incubated for a further 60-80 minutes. Finally the peptide-containing inoculum was removed, and 1 ml of 1% EMEM containing 1% carboxymethylcellulose was added to each well. Plates were incubated for a further 22 hours, before removal of overlay, and addition of 10% formaldehyde in PBS. After a further one hour incubation, fixative was removed, monolayers washed several times with tap water, and stained with carbol fuchsin solubilised in water. After 30 minutes stain was removed, and plates washed several times with tap water, before being air dried. Plaques were counted using an Olympus IX70 Inverting Microscope, and antiviral effect expressed as a percentage of the control value for each peptide concentration. The IC50 was calculated from plots of inhibitory effect against peptide concentration.
The methods employed were as described in Examples 1-4 expect peptides were prepared as 400 μM stocks in phosphate buffered saline (PBS).

HSV2 clinical isolates = format: cell-based, herpes simplex virus type 2
Method: as §1
Plaque assays were performed. The methodology was as described in previous Examples for HSV1 plaque assays (including usage of Vero cells) except HSV2 clinical isolates (provided by Prof. Anthony Hart of Liverpool University) were employed instead.

bacteria = conditions: Azuma et al., Peptides, 21: 327-330 (2000); cited from earlier work
HSV2 = HSV2 plaque formation in HEp-2 cells (Example 1); format: cell-based, herpes simplex virus type 2; conditions: HSV2, HEp-2 cells
Method: (§2) FIG. 1 and table 1 show typical results for the test for anti-HSV1 activity. The assay involved treating confluent Vero cells in 24-well plates with medium containing virus and varying amounts of peptide for one hour, followed by removal of this inoculum, and addition of viscous ‘overlay’ medium, containing 0.2% high viscosity carboxymethylcellulose. The overlay medium only allows infection of those cells immediately adjacent to an infected cell. After 2 days incubation and then fixation and staining, small patches of infected cells (or ‘plaques’) are visible, which are counted. Each of these corresponds to the infection of a single cell during the one hour inoculation. ApoE141-149dp produced a 40% reduction in plaque number at a concentration of around 20 μM. Note the peptide was only present in the experimental system for 1 hour.
FIG. 2 and table 2 show typical results for the test for anti-HSV2 activity. The assay was carried out as for the anti-HSV1 assay, except Hep-2 cells were used rather than Vero cells. ApoE141-149dp produced a 50% reduction in plaque number at a concentration of around 20 μM. Again note that the peptide was only present in the experimental system for 1 hour.

HIV-1 = conditions: 7 days; for % Decrease in HIV p24 Production, Mean ± sd / % Decrease in HIV p24 Production, Exp. 1-3: U937 cells
Method: The assay was carried out by incubating HIV infected U937 cells in the presence of various levels of peptide for 7 days, followed by assay for levels of the HIV protein p24 in the cells using an Enzyme Linked Immunoabsorbant Assay (ELISA) technique.

HSV1 [2] = assay: HSV1 plaque formation in Vero cells (Example 1); format: cell-based, herpes simplex virus type 1
Method: as §2

HIV isolate SF162 = assay: HIV-1 infectious foci in NP2 glioma cells over-expressing CD4 and CCR5; format: cell-based; conditions: HIV isolate SF162, NP-2 glioma cells overexpressing CCR5, 0.1 to 10 micromolar
Method: Similar experiments to those described in Example 2 were conducted to test the efficacy of the peptides according to the invention against HIV infection. The glioma cell line NP2 over-expressing both CD4 and the appropriate co-receptor (CCR5 or CXCR4) were maintained in DMEM supplemented with 10% FCS. 2×10^4 cells were plated per well of a 48-well plate 24 h prior to infection and grown at 37 C. The cells were then washed, and incubated in DMEM/FCS containing peptide concentrations ranging from 0.1 to 10 micromolar, at 37 C for 30 minutes. 200 focus-forming units of HIV-1 stocks were then added to each well, and the cells incubated at 37 C for a further 2 hours. The cells were then washed twice in PBS and fresh medium replaced. After 3 day's growth the cells were fixed in cold methanol:acetone, and stained in situ for expression of HIV-1 p24 using a monoclonal anti-p24 followed by a secondary anti-mouse beta-galactosidase conjugate. Expression was visualised by X-Gal staining and infectious foci enumerated by light-microscopy.

[3] = 5 μM peptide, untreated mean 152 ± 10.7

## RTRKRGRRTRKRGR-NH2 (C-terminus assumed) [GIN 36]
HSV1 [1]
  IC50: 9 µM
  antiviral activity against HSV1 (in words): have antiviral activity

## KRWRKRWRKKRWRKRWRK-NH2 (C-terminus assumed) [MU_34]
HSV1 [1]
  IC50: 9 µM

## KRWRKRWRKWRWRKRWRK-NH2 (C-terminus assumed) [MU_29]
HSV1 [1]
  IC50: 7.5 µM

## RRWRKRWRKWRWRKRWRK-NH2 (C-terminus assumed) [MU_28]
HSV1 [1]
  IC50: 7.5 µM

## RWRKRWRKWRWRKRWRK-NH2 (C-terminus assumed) [MU_32]
HSV2 clinical isolates
  IC50: > 20 µM
HSV1 [1]
  IC50: 7.5 µM

## RTRKRGRKRTRKRGRK-NH2 (C-terminus assumed) [GIN 35]
HSV1 [1]
  IC50: 9 µM
  antiviral activity against HSV1 (in words): have antiviral activity

## LRKRKRLLRKRKRL-NH2 (C-terminus assumed) [GIN 37]
HSV1 [1]
  IC50: 9 µM
  antiviral activity against HSV1 (in words): have antiviral activity

## Ac-HMLDVMQDHFSRASSIIDEL (N-terminus assumed) [GIN 29]
HSV1 [1]
  IC50: 38.5 µM

## RTRKRWRKRTRKRGRK-NH2 (C-terminus assumed) [MU_70]
HSV2 clinical isolates
  IC50: > 20 µM
HSV1 [1]
  IC50: 9.5 µM

## RWRKRWRWRKRWRWRKRW-NH2 (C-terminus assumed) [MU_84]
HSV1 [1]
  IC50: 10 µM

## Ac-RLRARMEEMRLRARMEEM-NH2 (N-terminus and C-terminus assumed) [GIN 15]
HSV1 [1]
  IC50: > 40 µM

## LRWRKRWRKLRWRKRWRK-NH2 (C-terminus assumed) [MU_35]
HSV1 [1]
  IC50: > 15 µM

## LRWRKRWRKWRWRKRWRK-NH2 (C-terminus assumed) [MU_30]
HSV1 [1]
  IC50: 7.5 µM

## apoE 134-155: peptide derivative of apoE tested for antibacterial action (Azuma et al.) (RVRLASHLRKLRKRLLRDADDL; UniProt P02649 152-173, looked up, fragment)
bacteria
  antibacterial action (in words): little effect

## RWRKRWRKRWRKRWRK-NH2 (C-terminus assumed) [MU_71]
HSV1 [1]
  IC50: 16 µM

## ApoE 133-162: peptide derivative of apoE with antibacterial action (Azuma et al.) (LRVRLASHLRKLRKRLLRDADDLQKRLAVY; UniProt P02649 151-180, looked up, fragment)
bacteria
  antibacterial action (in words): most effective

## HRWRKRWRKWRWRKRWRK-NH2 (C-terminus assumed) [MU_31]
HSV1 [1]
  IC50: 7.5 µM

## RRWRKRWRKRRWRKRWRK-NH2 (C-terminus assumed) [MU_33]
HSV2 clinical isolates
  IC50: > 20 µM
HSV1 [1]
  IC50: 6.5 µM

## HRWRKRWRKHRWRKRWRK-NH2 (C-terminus assumed) [MU_36]
HSV1 [1]
  IC50: 10 µM

## LRKRKRLRKLRKRKRLRK-NH2 (C-terminus assumed) [GIN 38]
HSV1 [1]
  IC50: 9 µM
  antiviral activity against HSV1 (in words): have antiviral activity

## ApoE263-286: peptide from a region of apolipoprotein E that is not involved in HSPG receptor binding (SWFEPLVEDMQRQWAGLVEKVQAA; UniProt P02649 281-304, looked up, fragment)
HSV2; [3]
  Plaque number, Mean ± sd: 152 ± 12.0
  Plaque number, wells 1-4: 135 and 160 and 161 and 152
HSV2; 10 μM peptide
  Plaque number, Mean ± sd: 141 ± 16.1
  Plaque number, wells 1-4: 157 and 121 and 151 and 134
HSV2; 20 μM peptide
  Plaque number, Mean ± sd: 146 ± 27.3
  Plaque number, wells 1-4: 118 and 150 and 182 and 134
HSV2; 30 μM peptide
  Plaque number, Mean ± sd: 124 ± 24.2
  Plaque number, wells 1-4: 118 and 117 and 103 and 159
HSV2; 40 μM peptide
  Plaque number, Mean ± sd: 131 ± 24.2
  Plaque number, wells 1-4: 132 and 144 and 125 and 124
HIV-1; HIV infected U937 cells, 20 μM
  reduction in infectivity: 20%
HIV-1; 10 μM peptide
  % Decrease in HIV p24 Production, Mean ± sd: 23.21 ± 12.79%
HIV-1; 20 μM peptide
  % Decrease in HIV p24 Production, Mean ± sd: 22.77 ± 13.07%
HIV-1; 30 μM peptide
  % Decrease in HIV p24 Production, Exp. 1-3: 37.94% and 27.83% and 41.78%
  % Decrease in HIV p24 Production, Mean ± sd: 35.85 ± 7.21%
HIV-1; 40 μM peptide
  % Decrease in HIV p24 Production, Mean ± sd: 38.87 ± 12.70%
HIV-1; 50 μM peptide
  % Decrease in HIV p24 Production, Exp. 1-3: 33.36% and 41.45% and 45.66%
  % Decrease in HIV p24 Production, Mean ± sd: 40.16 ± 6.25%
HSV1 [2]; 5 μM peptide in inoculum for 1 hour, untreated mean 107 ± 14.2
  Plaque number, wells 1-4: 113 and 119 and 122 and 126
HSV1 [2]; 5 μM peptide, untreated mean 107 ± 14.2
  Plaque number, Mean ± sd: 120 ± 5.5
HSV1 [2]; 10 μM peptide
  Plaque number, Mean ± sd: 114 ± 11.1
  Plaque number, wells 1-4: 116 and 124 and 102
HSV1 [2]; 20 μM peptide
  Plaque number, Mean ± sd: 127 ± 17.0
  Plaque number, wells 1-4: 148 and 112 and 133 and 114
HSV1 [2]; 30 μM peptide
  Plaque number, Mean ± sd: 121 ± 11.2
  Plaque number, wells 1-4: 134 and 109 and 114 and 125
HSV1 [2]; 40 μM peptide
  Plaque number, Mean ± sd: 126 ± 11.2
  Plaque number, wells 1-4: 120 and 113 and 125 and 144

## LRTRKRGRKLRTRKRGRK-NH2 (C-terminus assumed) [GIN 16]
HSV1 [1]
  IC50: 22 µM
  antiviral activity against HSV1 (in words): showed antiviral activity
HSV1 [1]; listed as GIN16
  antiviral activity against HSV1 (in words): appreciable antiviral effect

## RWRKRGRKRWRKRGRK-NH2 (C-terminus assumed) [MU_69]
HSV1 [1]
  IC50: 13 µM

## GERLRARMEGERLRARME-NH2 (C-terminus assumed) [GIN 14]
HSV1 [1]
  IC50: > 40 µM
  antiviral activity against HSV1 (in words): no antiviral activity

## Ac-WRWRKRWRKWRWRKRWRK-NH2 (N-terminus and C-terminus assumed) [GIN 33]
HIV isolate SF162
  anti-HIV action (in words): anti-HIV action
HSV2 clinical isolates
  IC50: 10 µM
HSV1 [1]
  antiviral activity against HSV1 (in words): have antiviral activity

## RWRKRWRKRWRKRWRK-NH2 (C-terminus assumed) [MU_37]
HSV1 [1]
  IC50: 12.5 µM
